In patent US20110053900A1, “PROGESTERONE ANTAGONISTS SUCH AS CDB-4124 IN THE TREATMENT OF BREAST CANCER” (Repros Therapeutics inc, priority 2008, published 2011):
Marks after values point to notes of the source that are not given here.

Tests used:
[1] = Serum cortisol by ELISA; assay type: in vivo, rat; settings: 10 mg/kg, 21 days of dosing
Description: (§1) The animals were assessed three times for their levels of progesterone: initially, when they were about to go on treatment; a second time after 21 days of treatment; and finally after treatment at sacrifice which was 2-4 days after the last s.c. injection. All blood samples were taken by heart puncture; serum was prepared and held frozen at −40° C. The levels of the steroid hormones progesterone, cortisol, and corticosterone were determined by ELISA.
(§2) The concentrations of steroid hormones were determined three times during the study: before the beginning of treatments, after 21 days of treatment and finally after treatment at sacrifice which was 2-4 days after the last s.c. injection. All samples were taken by heart puncture. Serum was obtained and held frozen at −40° C. The levels of steroid hormones were determined by ELISA.

[2] = system: rat tumors (proliferation marker Ki-67); assay: Tumor proliferation by Ki-67 immunohistochemistry; assay type: in vivo; settings: 10 mg/kg
Text: In order to assess the effects of progestins and anti-progestins on cell proliferation, tissue sections derived from 46 individual rat tumors from treated an control animals were examined by measuring expression of the proliferation marker Ki-67 using the Ki-67 antibody (NeoMarkers, Fremont, Calif.) and immunohistochemistry. Despite the reduction in size of many tumors in Groups 3 and 6 following treatment in Groups 3 and 6 making them too small to be re-cut, 7-12 ACAs from Groups 1, 3, 4, 6 and 11 were re-cut. The results of proliferation experiments, in which proliferation was measured as a percentage of cells expressing Ki-67, are summarized in Table 4: […]

[3] = system: DMBA-induced tumors of the rat mammary gland; assay: DMBA-induced breast tumors: tumor number, size and tumor burden at necropsy; assay type: in vivo; settings: for Tumor Burden / Tumor Weight mean / Tumor Weight median / Number of Tumors: 28 days; for Number of Tumors: FA/AF excluded; for lowering of tumor burden and median tumor sizes: 10 mg/kg, versus control
Description: (§3) To induce breast tumors, Sprague-Dawley female rats were given 10 mg/kg body weight of DMBA at 50 days of age. One group of 14 rats (Group 2) received sesame oil at 50 days of age instead of DMBA to serve as the no-DMBA controls. Animals were weighed and palpated weekly along the milk line for any sign of lesions or swellings. Tumor nodules were noted and measured weekly in two dimensions with calipers. When tumors grew to a size of 10-12 mm in any dimension, the individual animal was randomized into one of 14 groups. Tumors appeared as soon as 39 days after oral gavage and as late as 194 days (latter individual not included in study). The mean latency period for tumor appearance was 106±30 days.
(§4) Animals were treated for 28 days on the following schedule. Group 1 received daily subcutaneous (s.c.) injections of vehicle (10% ethanol in sesame oil). Group 2 (no DMBA control group-no tumors expected) received vehicle on a schedule decided beforehand to simulate initiation of treatment over a three-month time period. […] Groups 5 through 9 received 20 mg/kg, 10 mg/kg, 2 mg/kg, 1 mg/kg and 0.1 mg/kg of CDB-4124, respectively. Groups 10 through 14 mirrored the treatment given 5 through 9 except that 10 mg/kg of micronized progesterone was also added as a component to compositions for injections.
(§5) Animals were sacrificed 3-5 days after the end of the 28-day treatment period, blood was drawn, and tumors were removed, weighed, measured, inspected, and portions frozen and/or placed in 10% phosphate buffered formalin for histopathology. The tissue samples were cut and stained with hematoxylin and eosin and were evaluated for histopathological classification.
The results in Table 3 are those for ACA, PCA and mixed ACA/PCA, but the FA or AF tumors are excluded.

[4] = system: rat tumors; assay: Apoptosis in tumors; assay type: in vivo; settings: 10 mg/kg
Description: Apoptosis was evaluated in the same tumors by an apoptosis hybridization kit (Oncor, Gaithersburg, Md.). The cells in apoptosis were evaluated in the peripheral areas of the tumors and far from necrosis. At least 1,000 cells per tumor section were evaluated.

[5] = system: DMBA-induced tumors of the rat mammary gland; assay: DMBA-induced breast tumors: tumor number and tumor type at necropsy; assay type: in vivo; settings: for ACA + PCA per rat / ACA per rat / FA/AF no. / Incidence of tumors (%) / Incidence of tumors (rats with tumors/rats) / PCA per rat: 28 days
Description: as §3, §4, §5
Histologically, four types of tumors were identified (Table 2): adenocarcinomas (ACAs), papillary carcinomas (PCAs), a fibrosarcoma, and fibroadenomas or adenofibromas (FA or AF), the latter two tumor types were not considered to represent frank malignancies.

[6] = Serum progesterone by ELISA; assay type: in vivo, rat; settings: for Serum Progesterone, Before TX (mean): before treatment; for Serum Progesterone, During TX (mean): after 21 days of treatment; for Serum Progesterone, After TX (mean): at sacrifice 2-4 days after the last s.c. injection
Description: as §1, §2

[7] = system: DMBA-induced tumors of the rat mammary gland; assay: DMBA-induced breast tumors: tumor progression (growth pattern); assay type: in vivo; settings: 10 mg/kg
Description: as §3, §4
In order to evaluate the effects of CDB-4124, RU486 and progesterone on tumor development and progression, growth kinetics and tumor size were monitored during the treatment period. Individual tumors from animals with tumors in the study were measured weekly in two dimensions with calipers. The data is corrected to exclude the non-malignant FA/AF tumor types. Tumors that increased in cross-sectional area by at least 33% over the 28-day inspection period were considered to be growing (FIG. 1, black boxes). Those that decreased by approximately 33% were considered to be regressing (FIG. 1, white boxes). Others were considered to be static (FIG. 1, gray boxes).

[8] = system: T47Darom cells; assay: Crystal violet cell proliferation assay in aromatase-overexpressing T47D cells; assay type: cell-based; settings: Homo sapiens, 96 h, 4 μM alone, 4 days
Description: Untreated cells were used as a control. The crystal violet assay was used to measure cell proliferation. The dye in this assay, crystal violet, stains DNA. Upon solubilization, the amount of dye taken up by the cells can be quantitated in a spectrophotometer.

CC#C[C@]1(O)CC[C@H]2[C@@H]3CCC4=CC(=O)CCC4=C3[C@@H](c3ccc(N(C)C)cc3)C[C@@]21C [RU 486, mifepristone, reference compound]
serum cortisol versus control group (in words) [1]: no significant difference in the levels of cortisol | Proliferating tumor cells by Ki-67, % cells positive [2]: 12.9 ± 7.0% | Tumor Burden ([3]; 10 mg/kg s.c. daily): 2.47 g/rat | Tumor Weight mean ([3]; 10 mg/kg s.c. daily): 1.19 g | Tumor Weight median ([3]; 10 mg/kg s.c. daily): 0.16 g | Number of Tumors ([3]; 10 mg/kg s.c. daily): 27 | lowering of tumor burden and median tumor sizes [3]: 5 fold | Apoptosis, % cells positive [4]: 3.34 ± 2.57% | ACA + PCA per rat ([5]; 10 mg/kg s.c. daily): 2.00 | ACA per rat ([5]; 10 mg/kg s.c. daily): 2.08 | FA/AF no. ([5]; 10 mg/kg s.c. daily): 1 | Incidence of tumors (%) ([5]; 10 mg/kg s.c. daily): (93) % | Incidence of tumors (rats with tumors/rats) ([5]; 10 mg/kg s.c. daily): 13/14 | PCA per rat ([5]; 10 mg/kg s.c. daily): 0.08 | Serum Progesterone, Before TX (mean) ([6]; 10 mg/kg group): 58 ng/mL | Serum Progesterone, During TX (mean) ([6]; 10 mg/kg): 72* ng/ml | Serum Progesterone, After TX (mean) ([6]; 10 mg/kg): 52 ng/mL | effect on tumor growth pattern (in words) ([7]; compared to the controls): apparent increase in the proportion of regressing tumors

COCC(=O)[C@@]1(OC(C)=O)CC[C@H]2[C@@H]3CCC4=CC(=O)CCC4=C3[C@@H](c3ccc(N(C)C)cc3)C[C@@]21C [CDB-4124, 21-methoxy-17α-acetoxy-11β-(4 N,N-dimethylaminophenyl)-19-norpregna-4,9-diene-3,20-dione]
serum cortisol versus control group (in words) [1]: significantly higher levels of serum cortisol | Proliferating tumor cells by Ki-67, % cells positive [2]: 5.1 ± 4.2% | Tumor Burden ([3]; 0.1 mg/kg s.c. daily): 5.1 g/rat | Tumor Weight mean ([3]; 0.1 mg/kg s.c. daily): 2.26 g | Tumor Weight median ([3]; 0.1 mg/kg s.c. daily): 0.17 g | Number of Tumors ([3]; 0.1 mg/kg s.c. daily): 29 | Tumor Burden ([3]; 1 mg/kg s.c. daily): 0.94 g/rat | Tumor Weight mean ([3]; 1 mg/kg s.c. daily): 0.53 g | Tumor Weight median ([3]; 1 mg/kg s.c. daily): 0.17 g | Number of Tumors ([3]; 1 mg/kg s.c. daily): 16 | Tumor Burden ([3]; 2 mg/kg s.c. daily): 4.61 g/rat | Tumor Weight mean ([3]; 2 mg/kg s.c. daily): 2.98 g | Tumor Weight median ([3]; 2 mg/kg s.c. daily): 0.09 g | Number of Tumors ([3]; 2 mg/kg s.c. daily): 17 | Tumor Burden ([3]; 10 mg/kg s.c. daily): 0.48 g/rat | Tumor Weight mean ([3]; 10 mg/kg s.c. daily): 0.26 g | Tumor Weight median ([3]; 10 mg/kg s.c. daily): 0.075 g | Number of Tumors ([3]; 10 mg/kg s.c. daily): 18 | lowering of tumor burden and median tumor sizes [3]: 10 fold | Tumor Burden ([3]; 20 mg/kg s.c. daily): 4.71 g/rat | Tumor Weight mean ([3]; 20 mg/kg s.c. daily): 3.4 g | Tumor Weight median ([3]; 20 mg/kg s.c. daily): 0.125 g | Number of Tumors ([3]; 20 mg/kg s.c. daily): 20 | Apoptosis, % cells positive [4]: 3.84 ± 3.10% | ACA + PCA per rat ([5]; 0.1 mg/kg s.c. daily): 2.25 | ACA per rat ([5]; 0.1 mg/kg s.c. daily): 1.17 | FA/AF no. ([5]; 0.1 mg/kg s.c. daily): 3 | Incidence of tumors (%) ([5]; 0.1 mg/kg s.c. daily): (100) % | Incidence of tumors (rats with tumors/rats) ([5]; 0.1 mg/kg s.c. daily): 12/12 | PCA per rat ([5]; 0.1 mg/kg s.c. daily): 0.83 | ACA + PCA per rat ([5]; 1 mg/kg s.c. daily): 1.78 | ACA per rat ([5]; 1 mg/kg s.c. daily): 1.67 | FA/AF no. ([5]; 1 mg/kg s.c. daily): 2 | Incidence of tumors (%) ([5]; 1 mg/kg s.c. daily): (82) % | Incidence of tumors (rats with tumors/rats) ([5]; 1 mg/kg s.c. daily): 9/11 | PCA per rat ([5]; 1 mg/kg s.c. daily): 0.11 | ACA + PCA per rat ([5]; 2 mg/kg s.c. daily): 1.55 | ACA per rat ([5]; 2 mg/kg s.c. daily): 1.45 | FA/AF no. ([5]; 2 mg/kg s.c. daily): 2 | Incidence of tumors (%) ([5]; 2 mg/kg s.c. daily): (92) % | Incidence of tumors (rats with tumors/rats) ([5]; 2 mg/kg s.c. daily): 11/12 | PCA per rat ([5]; 2 mg/kg s.c. daily): 0.09 | ACA + PCA per rat ([5]; 10 mg/kg s.c. daily): 1.70 | ACA per rat ([5]; 10 mg/kg s.c. daily): 1.5 | FA/AF no. ([5]; 10 mg/kg s.c. daily): 1 | Incidence of tumors (%) ([5]; 10 mg/kg s.c. daily): (91) % | Incidence of tumors (rats with tumors/rats) ([5]; 10 mg/kg s.c. daily): 10/11 | PCA per rat ([5]; 10 mg/kg s.c. daily): 0.2 | ACA + PCA per rat ([5]; 20 mg/kg s.c. daily): 1.38 | ACA per rat ([5]; 20 mg/kg s.c. daily): 1.31 | FA/AF no. ([5]; 20 mg/kg s.c. daily): 3 | Incidence of tumors (%) ([5]; 20 mg/kg s.c. daily): (100) % | Incidence of tumors (rats with tumors/rats) ([5]; 20 mg/kg s.c. daily): 13/13 | PCA per rat ([5]; 20 mg/kg s.c. daily): 0.08 | average multiplicity across the highest four treatment groups ([5]; 20, 10, 2, 1 mg/kg/day): 1.58 tumors per rat | inhibition at 4 µM [8]: < 30% | Serum Progesterone, Before TX (mean) ([6]; 0.1 mg/kg group): 54 ng/mL | Serum Progesterone, During TX (mean) ([6]; 0.1 mg/kg): 53 ng/mL | Serum Progesterone, After TX (mean) ([6]; 0.1 mg/kg): 53 ng/mL | Serum Progesterone, Before TX (mean) ([6]; 1 mg/kg group): 64 ng/mL | Serum Progesterone, During TX (mean) ([6]; 1 mg/kg): 47 ng/mL | Serum Progesterone, After TX (mean) ([6]; 1 mg/kg): 42 ng/mL | Serum Progesterone, Before TX (mean) ([6]; 2 mg/kg group): 59 ng/mL | Serum Progesterone, During TX (mean) ([6]; 2 mg/kg): 74* ng/ml | Serum Progesterone, After TX (mean) ([6]; 2 mg/kg): 56 ng/mL | Serum Progesterone, Before TX (mean) ([6]; 10 mg/kg group): 52 ng/mL | Serum Progesterone, During TX (mean) ([6]; 10 mg/kg): 77* ng/ml | Serum Progesterone, After TX (mean) ([6]; 10 mg/kg): 43 ng/mL | Serum Progesterone, Before TX (mean) ([6]; 20 mg/kg group): 61 ng/mL | Serum Progesterone, During TX (mean) ([6]; 20 mg/kg): 96* ng/ml | Serum Progesterone, After TX (mean) ([6]; 20 mg/kg): 58 ng/mL | proportion of tumors regressing ([7]; decrease of cross-sectional area by about 33% over 28 days): 70%
